{
  "source": "ChEMBL document CHEMBL5370612",
  "about": "“Cytotoxic Epipolythiodioxopiperazines from the Deep-Sea-Derived Fungus Exophiala mesophila MCCC 3A00939” (J Nat Prod, 2023)",
  "key": {"[1]": {"experiment": "Cytotoxicity against human L02 cells by SRB method", "assay_type": "toxicity, cell-based"}, "MDA-MB-231": {"test_system": "MDA-MB-231", "experiment": "Cytotoxicity against human MDA-MB-231 cells by SRB method", "assay_type": "functional, cell-based"}, "K562": {"test_system": "K562", "experiment": "Cytotoxicity against human K562 cells by MTT method", "assay_type": "functional, cell-based"}, "H69AR": {"test_system": "H69AR", "experiment": "Cytotoxicity against human NCI-H69AR cells by SRB method", "assay_type": "functional, cell-based"}, "ASPC1": {"test_system": "ASPC1", "experiment": "Cytotoxicity against human ASPC1 cells by SRB method", "assay_type": "functional, cell-based"}},
  "data": [
    {"smiles": "CS[C@@]12CC3=COC=C[C@H](OC(C)=O)[C@H]3N1C(=O)[C@]1(SC)CC3=COC=C[C@H](OC(C)=O)[C@H]3N1C2=O", "values": [
      {"measurement": "IC50", "setting": "[1]", "result": "> 30", "unit": "µM"},
      {"measurement": "IC50", "setting": "MDA-MB-231", "result": "> 30", "unit": "µM"},
      {"measurement": "IC50", "setting": "K562", "result": "> 30", "unit": "µM"},
      {"measurement": "IC50", "setting": "H69AR", "result": "> 30", "unit": "µM"},
      {"measurement": "IC50", "setting": "ASPC1", "result": "> 30", "unit": "µM"}
    ]},
    {"smiles": "CS[C@@]12CC3=COC=C[C@H](O)[C@H]3N1C(=O)[C@]1(SC)CC3=COC=C[C@H](O)[C@H]3N1C2=O", "values": [
      {"measurement": "IC50", "setting": "[1]", "result": "> 30", "unit": "µM"},
      {"measurement": "IC50", "setting": "MDA-MB-231", "result": "> 30", "unit": "µM"},
      {"measurement": "IC50", "setting": "K562", "result": "> 30", "unit": "µM"},
      {"measurement": "IC50", "setting": "H69AR", "result": "> 30", "unit": "µM"},
      {"measurement": "IC50", "setting": "ASPC1", "result": "> 30", "unit": "µM"}
    ]},
    {"smiles": "CS[C@@]12CC3=COC=C[C@H](OC(C)=O)[C@H]3N1C(=O)[C@]1(SC)CC3=COC=C[C@H](O)[C@H]3N1C2=O", "values": [
      {"measurement": "IC50", "setting": "[1]", "result": "> 30", "unit": "µM"},
      {"measurement": "IC50", "setting": "MDA-MB-231", "result": "> 30", "unit": "µM"},
      {"measurement": "IC50", "setting": "K562", "result": "> 30", "unit": "µM"},
      {"measurement": "IC50", "setting": "H69AR", "result": "> 30", "unit": "µM"},
      {"measurement": "IC50", "setting": "ASPC1", "result": "> 30", "unit": "µM"}
    ]},
    {"smiles": "CS[C@@]12CC3=COC=C[C@H](OC(=O)CC(C)=C(C)C)[C@H]3N1C(=O)[C@]1(SC)CC3=COC=C[C@H](O)[C@H]3N1C2=O", "values": [
      {"measurement": "IC50", "setting": "[1]", "result": "> 30", "unit": "µM"},
      {"measurement": "IC50", "setting": "MDA-MB-231", "result": "> 30", "unit": "µM"},
      {"measurement": "IC50", "setting": "K562", "result": "> 30", "unit": "µM"},
      {"measurement": "IC50", "setting": "H69AR", "result": "> 30", "unit": "µM"},
      {"measurement": "IC50", "setting": "ASPC1", "result": "> 30", "unit": "µM"}
    ]},
    {"smiles": "CS[C@@]12CC3=COC=C[C@H](OC(C)=O)[C@H]3N1C(=O)[C@]1(SC)CC3=COC=C[C@H](OC(=O)CC(C)=C(C)C)[C@H]3N1C2=O", "values": [
      {"measurement": "IC50", "setting": "[1]", "result": "> 30", "unit": "µM"},
      {"measurement": "IC50", "setting": "MDA-MB-231", "result": 29, "unit": "µM"},
      {"measurement": "IC50", "setting": "K562", "result": "> 30", "unit": "µM"},
      {"measurement": "IC50", "setting": "H69AR", "result": "> 30", "unit": "µM"},
      {"measurement": "IC50", "setting": "ASPC1", "result": "> 30", "unit": "µM"}
    ]},
    {"smiles": "CC(C)=C(C)CC(=O)O[C@H]1C=COC=C2C[C@@]34SSSS[C@]5(CC6=COC=C[C@H](O)[C@H]6N5C3=O)C(=O)N4[C@@H]21", "values": [
      {"measurement": "IC50", "setting": "[1]", "result": 8.5, "unit": "µM"},
      {"measurement": "IC50", "setting": "MDA-MB-231", "result": 3.7, "unit": "µM"},
      {"measurement": "IC50", "setting": "K562", "result": 2.3, "unit": "µM"},
      {"measurement": "IC50", "setting": "H69AR", "result": 5.9, "unit": "µM"},
      {"measurement": "IC50", "setting": "ASPC1", "result": 13, "unit": "µM"}
    ]},
    {"smiles": "O=C(Cc1ccccc1)O[C@H]1C=COC=C2C[C@@]34SSSS[C@]5(CC6=COC=C[C@H](O)[C@H]6N5C3=O)C(=O)N4[C@@H]21", "values": [
      {"measurement": "IC50", "setting": "[1]", "result": 18, "unit": "µM"},
      {"measurement": "IC50", "setting": "MDA-MB-231", "result": 4.3, "unit": "µM"},
      {"measurement": "IC50", "setting": "K562", "result": 3.1, "unit": "µM"},
      {"measurement": "IC50", "setting": "H69AR", "result": 3.6, "unit": "µM"},
      {"measurement": "IC50", "setting": "ASPC1", "result": 25, "unit": "µM"}
    ]},
    {"smiles": "CC(=O)O[C@H]1C=COC=C2C[C@@]34SS[C@]5(CC6=COC=C[C@H](O)[C@H]6N5C3=O)C(=O)N4[C@@H]21", "note": "[ARANOTIN]", "values": [
      {"measurement": "IC50", "setting": "[1]", "result": 16, "unit": "µM"},
      {"measurement": "IC50", "setting": "MDA-MB-231", "result": 0.7, "unit": "µM"},
      {"measurement": "IC50", "setting": "K562", "result": 1.4, "unit": "µM"},
      {"measurement": "IC50", "setting": "H69AR", "result": 1.7, "unit": "µM"},
      {"measurement": "IC50", "setting": "ASPC1", "result": 11, "unit": "µM"}
    ]},
    {"smiles": "COc1cccc2c1C(=O)c1c(O)c3c(c(O)c1C2=O)C[C@@](O)(C(=O)CO)C[C@@H]3O[C@H]1C[C@H](N)[C@H](O)[C@H](C)O1", "note": "[DOXORUBICIN]", "values": [
      {"measurement": "IC50", "setting": "[1]", "result": "< 1", "unit": "µM"},
      {"measurement": "IC50", "setting": "MDA-MB-231", "result": "< 1", "unit": "µM"},
      {"measurement": "IC50", "setting": "K562", "result": "< 1", "unit": "µM"},
      {"measurement": "IC50", "setting": "H69AR", "result": "< 1", "unit": "µM"},
      {"measurement": "IC50", "setting": "ASPC1", "result": "< 1", "unit": "µM"}
    ]}
  ]
}
